Laboratory results as given in patent US6770635B1, “Method for medicating the inflammatory controlling system and adverse inflammatory reactions and for making compounds for treating the pathology of adverse inflammatory reactions” (Pharos Pharmaceuticals, priority 1995, dated 2004).

Legend:
[1] = storage of BD2K1 in a desiccated container; type: physicochemical; conditions: room temperature
[2] = stability of BD2K1 in water (deuterium oxide), 500 MHz NMR; type: physicochemical; conditions: for After One Week (share of ingredient in the solution by NMR) / Initially % (share of ingredient in the solution by NMR): BD2K1 in deuterium oxide, room temperature about 27° C.
Procedure: A sample of BD2K1 made according to Example 1. Five mcg of the sample was dissolved in one ml of deuterium oxide and the solution was stored in a tightly capped screw capped tube maintained at room temperature which is about 27° C. Deuterium was used as the water source because it facilitates the NMR determinations of chemical configuration. The solution sample was scanned by 500 MHz NMR initially and after one week.

[3] = stabilizing effect of glucose added to BD2K1-deuterium oxide mixtures, NMR; type: physicochemical; conditions: for level at which di-β-glucosamine equilibrates: 20% or more glucose in the mixture, in water, first week; for percent of total composition in the stationary equilibrium: 95% BD2K1 sample in water without glucose, one week
Procedure: This experiment measures the stabilizing effect of glucose when added to the BD2K1 -deuterium oxide mixtures at room temperature. Various amounts of α-D-glucose were added to the similar starting mixtures in Example 3 and the NMRs were recorded to determine the percent changes of the total composition as a function of time.

[4] = system: mice immunologically sensitive to a specific water soluble chemical; assay: Inflammatory Controlling System (ICS) assay; type: in vivo
Procedure: An example of BD2K1 being synthesized in another area than in the intestine is seen in a mouse study which was conducted involving the Inflammatory Controlling System (ICS). ICS assay is done in mice immunologically sensitive to a specific water soluble chemical. When these mice are challenged intravenously with a sublethal dose of the chemical, below the toxicity level for non-sensitive mice, they immediately respond with an adverse immune reaction. Result is an acute pancreatitis, shock and death. […] The assay involves glucose controls which are administrated intraperitoneally at three times. The first is early (i.e., 3 hours) before the antigen challenge. The second is one hour before the challenge and the third is at zero hour (i.e., when the challenge is done). […] However, for the case where glucose was injected at the zero hour and one hour before the challenge there was no effect.
A further study in mice was conducted to test the effect of glucose in mice by various routes of administration in the ICS assay test. The glucose was administrated by four different routes: intraperitoneal, intravenous, subcutaneous and oral.

[5] = tolerability statements for BD2K (topical, parenteral use); type: in vivo
[6] = general statements on stability at alkaline pH and in body fluids; type: physicochemical

Row | SMILES | decomposition on storage [1] | After One Week (share of ingredient in the solution by NMR) [2] | Initially % (share of ingredient in the solution by NMR) [2] | reduction of BD2K1 to the starting material glucose ([2]; by adding water) | level at which di-β-glucosamine equilibrates [3] | level at which di-β-glucosamine equilibrates ([3]; listed as di-β-glucosamine) | time the equilibrium level is kept ([3]; 20% or more glucose, sealed container) | percent of total composition in the stationary equilibrium [3] | protection against the acute pancreatitis ([4]; BD2K1 controls of the route study) | protection from death on challenge ([4]; sensitive mice, intravenous sublethal antigen challenge) | irritation ([5]; applied topically) | IgE levels in patient sera ([5]; patient sera) | toxicity ([5]; used parentally) | stability in body fluids ([6]; body fluids) | stability at high alkaline pH ([6]; high alkaline pH)
1 | OC[C@H]1O[C@@H](N[C@@H]2O[C@H](CO)[C@@H](O)[C@H](O)[C@H]2O)[C@H](O)[C@@H](O)[C@@H]1O [BD2K1, di-Beta-D-glucopyranosylamine] | does not decompose | 62% | 92% | 33% | 80% | about 80% | at least five years | 62% | good protection | protects these sensitive mice from death | without any irritation | without elevating IgE levels | no indication of toxicity | not very stable | extremely stable
2 | c1cnccn1 [pyrazine] | – | 1% | 1% | – | – | – | – | less than 1% | – | – | – | – | – | – | –
3 | OC[C@H]1O[C@H](O)[C@H](O)[C@@H](O)[C@@H]1O [α-glucose] | – | 10% | 0% | – | – | – | – | – | – | – | – | – | – | – | –
4 | OC[C@H]1O[C@@H](O)[C@H](O)[C@@H](O)[C@@H]1O [β-glucose] | – | 18% | 0% | – | – | – | – | – | – | – | – | – | – | – | –
